# Data taken from ChEMBL document CHEMBL1201862, “PubChem BioAssay data set” (2004).
# Activity calls are given as the source filed them. For most assays here, no stated cut-off is given here; in the data, actives have a measured EC50 and inactives only a lower limit.
# Tests used:
# [1] = biological target: Luciferin 4-monooxygenase (Photinus pyralis, UniProt P08659); assay: firefly luciferase enzyme inhibitors, dose response, biochemical, luminescence (AID 1891)
# [2] = Luminescence Cell-Based Dose Confirmation HTS to Identify Inhibitors of Platelet Dense Granule Release. [Related pubchem assays: 1663 (Primary HTS), 1678 (Summary of Project)]; type: functional
# [3] = inhibitors of firefly luciferase expression or activity, dose response, H4 neuroglioma cells, luminescence (AID 1990); type: functional, cell-based
# BJ [4] = assay: cytotoxicity toward BJ-TERT fibroblasts, dose response, cell-based, RAS-independent, luminescence (AID 1933); type: functional; settings: Homo sapiens
# [5] = Luminescence Cell-Based Dose Response HTS to Identify Inhibitors of 5'UTR Stem-Loop Driven Prion Protein mRNA Translation in H4 Neuroglioblastoma Cells. [Related pubchem assays: 1827 (Project Summary), 1813 (Primary HTS)]; type: functional
# [6] = inhibitors of SNCA 5'UTR-driven reporter translation, confirmation, H4 neuroglioma cells, luminescence (AID 1988); type: functional, cell-based
# BJ [7] = assay: cells; type: functional, cell-based; settings: Homo sapiens
# BJ [8] = assay: cytotoxicity toward BJ-TERT-LT-ST fibroblasts, dose response, cell-based, RAS-independent, luminescence (AID 1935); type: functional; settings: Homo sapiens;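 further: BJ fibroblasts immortalized with TERT plus LT and ST oncogenes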
# [9] = cytotoxicity toward DRD oncogenic fibroblasts, dose response, cell-based, non-viral oncogenic, luminescence (AID 1934); type: functional; settings: Homo sapiens
# Aminopeptidase N = biological target: T1, Aminopeptidase N (Plasmodium falciparum FcB1/Columbia, UniProt O96935); assay: P. falciparum M1AAP inhibitors, biochemical, fluorogenic H-Leu-NHMec substrate, 1536-well (AID 1445); parameters: species or system Plasmodium falciparum 3D7, 3D7
# T1 sequence (O96935 whole entry): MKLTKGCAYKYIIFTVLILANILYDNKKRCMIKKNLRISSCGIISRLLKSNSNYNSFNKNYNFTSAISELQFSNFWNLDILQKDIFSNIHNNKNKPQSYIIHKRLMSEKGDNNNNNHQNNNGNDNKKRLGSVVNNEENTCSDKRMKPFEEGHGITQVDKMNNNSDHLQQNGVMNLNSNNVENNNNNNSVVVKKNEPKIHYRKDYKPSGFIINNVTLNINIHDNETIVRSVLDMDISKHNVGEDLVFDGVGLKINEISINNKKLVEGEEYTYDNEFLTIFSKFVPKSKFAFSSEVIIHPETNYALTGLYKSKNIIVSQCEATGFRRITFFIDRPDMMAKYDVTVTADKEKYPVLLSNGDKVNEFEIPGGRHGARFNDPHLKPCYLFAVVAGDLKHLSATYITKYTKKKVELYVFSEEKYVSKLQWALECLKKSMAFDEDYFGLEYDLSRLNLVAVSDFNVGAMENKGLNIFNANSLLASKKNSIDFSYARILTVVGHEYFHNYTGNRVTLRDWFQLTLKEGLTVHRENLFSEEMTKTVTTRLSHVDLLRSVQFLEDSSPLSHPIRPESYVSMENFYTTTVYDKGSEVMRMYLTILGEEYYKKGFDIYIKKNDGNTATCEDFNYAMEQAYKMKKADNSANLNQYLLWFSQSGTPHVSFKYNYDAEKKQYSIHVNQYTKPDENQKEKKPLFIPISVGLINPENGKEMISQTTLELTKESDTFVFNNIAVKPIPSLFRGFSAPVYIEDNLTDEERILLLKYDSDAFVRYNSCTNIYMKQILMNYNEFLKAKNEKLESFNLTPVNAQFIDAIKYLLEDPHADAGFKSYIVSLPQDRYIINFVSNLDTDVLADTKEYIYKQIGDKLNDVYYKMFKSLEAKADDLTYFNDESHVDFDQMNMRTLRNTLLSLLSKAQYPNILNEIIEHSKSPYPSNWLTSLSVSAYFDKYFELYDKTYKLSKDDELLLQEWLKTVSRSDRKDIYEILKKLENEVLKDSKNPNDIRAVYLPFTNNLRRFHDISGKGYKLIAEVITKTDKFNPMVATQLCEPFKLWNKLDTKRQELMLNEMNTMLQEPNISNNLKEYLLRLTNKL
# [10] = biological target: T2, RNA-binding protein pos-1 (Caenorhabditis elegans, UniProt G5EF15); assay: inhibitors of POS-1/mex-3 RNA binding, dose response, biochemical, fluorescence polarization (AID 1964);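 further: purified POS-1 fused to maltose binding protein made in E. coli; potency of compounds blocking POS-1 binding to fluorescent RNA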
# T2 sequence (G5EF15 whole entry): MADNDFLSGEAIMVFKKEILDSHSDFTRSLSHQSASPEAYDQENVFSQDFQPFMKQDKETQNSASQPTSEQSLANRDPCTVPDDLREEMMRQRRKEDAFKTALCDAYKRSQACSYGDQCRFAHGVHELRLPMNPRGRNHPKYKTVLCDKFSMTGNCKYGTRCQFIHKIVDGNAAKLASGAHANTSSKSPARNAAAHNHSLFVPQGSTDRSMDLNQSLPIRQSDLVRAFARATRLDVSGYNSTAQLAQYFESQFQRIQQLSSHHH
# [11] = biological target: T3, Zinc finger protein mex-5 (Caenorhabditis elegans, UniProt Q9XUB2); assay: MEX-5/TCR-2 RNA interaction inhibitors, dose response, biochemical, C. elegans, fluorescence polarization (AID 1960)
# T3 sequence (Q9XUB2 whole entry): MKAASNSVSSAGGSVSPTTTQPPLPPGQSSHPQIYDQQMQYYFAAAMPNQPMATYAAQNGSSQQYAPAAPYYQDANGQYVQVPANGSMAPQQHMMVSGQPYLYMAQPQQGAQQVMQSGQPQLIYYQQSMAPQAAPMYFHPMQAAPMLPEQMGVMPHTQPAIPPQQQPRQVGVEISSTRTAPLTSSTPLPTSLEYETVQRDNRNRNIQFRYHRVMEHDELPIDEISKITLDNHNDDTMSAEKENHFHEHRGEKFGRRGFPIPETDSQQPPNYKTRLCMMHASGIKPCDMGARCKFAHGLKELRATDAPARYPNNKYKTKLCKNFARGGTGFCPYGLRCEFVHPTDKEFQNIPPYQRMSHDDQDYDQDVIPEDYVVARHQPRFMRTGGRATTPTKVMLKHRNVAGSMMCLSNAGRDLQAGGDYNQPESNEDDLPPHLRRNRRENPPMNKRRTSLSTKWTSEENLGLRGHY
# Cytochrome P450 1A2 = biological target: T4, Cytochrome P450 1A2 (Homo sapiens, UniProt P05177);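 further: PubChem cytochrome P450 panel assay, CYP1A2 panel member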
# T4 sequence (P05177 whole entry): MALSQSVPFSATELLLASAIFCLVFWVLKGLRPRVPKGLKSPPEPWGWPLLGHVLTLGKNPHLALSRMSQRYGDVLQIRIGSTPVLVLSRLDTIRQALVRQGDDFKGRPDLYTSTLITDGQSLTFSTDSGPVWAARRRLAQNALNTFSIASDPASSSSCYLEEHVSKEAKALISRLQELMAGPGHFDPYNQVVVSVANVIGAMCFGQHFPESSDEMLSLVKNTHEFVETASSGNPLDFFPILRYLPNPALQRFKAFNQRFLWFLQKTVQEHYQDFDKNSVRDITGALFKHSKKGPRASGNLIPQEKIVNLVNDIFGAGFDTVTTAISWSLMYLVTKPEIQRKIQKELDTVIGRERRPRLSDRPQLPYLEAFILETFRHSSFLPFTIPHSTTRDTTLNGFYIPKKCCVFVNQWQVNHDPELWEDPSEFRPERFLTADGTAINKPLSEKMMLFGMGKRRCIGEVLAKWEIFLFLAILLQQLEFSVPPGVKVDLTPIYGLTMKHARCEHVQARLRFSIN
# [12] = biological target: T5, DNA repair and recombination protein RAD54-like (Homo sapiens, UniProt Q92698); assay: inhibitors of human RAD54 branch migration, confirmation, biochemical, fluorescence, cherry-picked samples, dose series (AID 651657); type: functional
# T5 sequence (Q92698 whole entry): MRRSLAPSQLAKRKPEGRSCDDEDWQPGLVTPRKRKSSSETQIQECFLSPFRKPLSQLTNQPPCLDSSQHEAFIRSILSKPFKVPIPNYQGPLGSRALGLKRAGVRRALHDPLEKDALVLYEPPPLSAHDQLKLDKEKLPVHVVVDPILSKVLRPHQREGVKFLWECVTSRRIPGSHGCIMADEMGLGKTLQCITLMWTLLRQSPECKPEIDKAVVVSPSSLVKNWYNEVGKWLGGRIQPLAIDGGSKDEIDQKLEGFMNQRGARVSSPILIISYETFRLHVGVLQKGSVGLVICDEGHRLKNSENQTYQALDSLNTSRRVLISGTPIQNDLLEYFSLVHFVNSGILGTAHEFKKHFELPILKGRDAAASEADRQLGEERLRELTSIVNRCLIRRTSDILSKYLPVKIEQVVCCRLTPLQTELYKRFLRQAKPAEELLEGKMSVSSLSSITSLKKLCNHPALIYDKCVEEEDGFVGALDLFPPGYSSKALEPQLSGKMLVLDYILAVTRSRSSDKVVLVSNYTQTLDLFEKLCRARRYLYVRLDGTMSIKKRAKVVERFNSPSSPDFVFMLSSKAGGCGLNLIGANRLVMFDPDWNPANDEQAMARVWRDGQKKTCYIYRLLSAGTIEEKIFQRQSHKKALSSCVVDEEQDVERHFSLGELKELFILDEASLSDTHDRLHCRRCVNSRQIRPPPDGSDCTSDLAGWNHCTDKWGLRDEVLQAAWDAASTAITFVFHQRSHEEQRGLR
# INS1 = assay: beta cell apoptosis inhibitors, cytokine rescue, dose response, luminescence, retest (AID 449756); type: functional, cell-based; settings: Rattus norvegicus;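 further: cell death triggered by IL-1 beta plus TNF-alpha plus IFN-gamma mixture; protective hits raise ATP signal compared with cytokine alone wells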
# [13] = inhibitors of clade B AD8 Env fusion, dose response, cell-based, cherry-pick (AID 652062); type: functional;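 further: luciferase signal from cell-cell fusion driven by HIV-1 clade B AD8 Env; potency is for inhibitors of fusion seen as a drop in luminescence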
# Chain of Luciferin 4-monooxygenase (P08659 whole entry): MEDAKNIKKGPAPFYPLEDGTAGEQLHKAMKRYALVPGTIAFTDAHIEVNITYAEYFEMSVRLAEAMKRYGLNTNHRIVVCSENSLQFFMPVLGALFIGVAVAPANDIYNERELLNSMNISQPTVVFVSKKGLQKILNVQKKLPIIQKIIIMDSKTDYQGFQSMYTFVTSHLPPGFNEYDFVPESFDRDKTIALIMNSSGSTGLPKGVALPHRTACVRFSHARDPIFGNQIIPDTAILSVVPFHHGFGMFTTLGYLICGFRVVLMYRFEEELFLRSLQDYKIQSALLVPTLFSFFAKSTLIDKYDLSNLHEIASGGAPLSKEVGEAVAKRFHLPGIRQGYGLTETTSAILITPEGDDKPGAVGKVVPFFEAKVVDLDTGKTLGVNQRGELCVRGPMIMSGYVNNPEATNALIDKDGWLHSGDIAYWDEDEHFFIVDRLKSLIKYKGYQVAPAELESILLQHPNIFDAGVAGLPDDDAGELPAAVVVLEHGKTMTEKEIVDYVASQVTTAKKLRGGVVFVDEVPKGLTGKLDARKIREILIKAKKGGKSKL
smiles,measurement,setting,value
CCN(CC)CC(C)OC(=O)c1ccccc1Cl (centres undefined),EC50,[1],> 112 µM (not active)
same,EC50,[2],> 112 µM (not active)
CC(=O)Nc1ccc(Nc2nc(-c3c(C)nc4ccccn34)cs2)cc1,EC50,[3],> 120 µM (not active)
same,EC50,BJ [4],2.15 µM (active)
same,EC50,[5],0.227 µM (active)
same,EC50,[6],0.13 µM (active)
same,EC50,BJ [7],70.7 µM (inconclusive)
same,EC50,BJ [8],0.654 µM (inconclusive)
same,EC50,[9],2.86 µM (inconclusive)
Cc1cccc2cc(CN(CC(C)C)S(=O)(=O)c3ccccc3)c(O)nc12,EC50,[1],> 112 µM (not active)
same,EC50,[2],> 112 µM (not active)
CNC(=O)c1cc2c(=O)n3cccc(C)c3nc2n(C(C)C)c1=N,IC50,Aminopeptidase N,65.6 µM (active)
CCOc1cc(C2C3=C(O)CCCC3=NC3=C2C(=O)CCC3)cc(Cl)c1O (centres undefined),IC50,Aminopeptidase N,23.9 µM (active)
CC(=O)Nc1cccc(NC(=O)C2CCCN2C(=O)Nc2cccc(C)c2)c1 (centres undefined),IC50,Aminopeptidase N,39.1 µM (active)
O=C(O)CSc1c(O)nc2ccc(Cl)cc2c1-c1ccccc1,IC50,Aminopeptidase N,41 µM (active)
CCOC(=O)C1C(c2ccc(OC)c(OC)c2)c2c(n[nH]c2O)CC1(C)O (centres undefined),EC50,[1],> 112 µM (not active)
same,EC50,[2],> 112 µM (not active)
CC1(OC(=O)c2cnc3ccccc3n2)C(=O)C=C2C=C(C3CC3)OC=C2C1=O (centres undefined),EC50,[10],> 300 µM (not active)
same,EC50,[11],> 300 µM (not active)
CN1CCN(c2ccc([N+](=O)[O-])cc2C(=O)c2ccc(Cl)cc2)CC1,EC50,BJ [4],5.02 µM (active)
same,EC50,BJ [7],33.7 µM (inconclusive)
same,EC50,BJ [8],11 µM (inconclusive)
same,EC50,[9],4.22 µM (active)
CCOC(=O)c1c(NC(=O)c2c(C)noc2C)sc2c1CCCCC2,EC50,[1],> 112 µM (not active)
same,EC50,[2],> 112 µM (not active)
same,AC50,Cytochrome P450 1A2,5.01 µM (inconclusive)
CCN1CCCC1CNC(=O)c1cc2c(-c3cccc(OC)c3)nn(C)c2s1 (centres undefined),AC50,[12],56.9 µM (active)
c1csc(-c2csc3ncnc(NCCCN4CCOCC4)c23)c1,AC50,INS1,9.18 µM (active)
same,AC50,[13],4.73 µM (active)
